Assay results from US20140370079A1, “METHOD FOR TARGETING VASCULAR RHOJ FOR INHIBITING TUMOR ANGIOGENESIS” (Korea Advanced Institute of Science and Technology (KAIST), priority 2013, published 2014).

What was measured:
HUVECs [1] = assay: In vitro vascular permeability assay (FITC-dextran across EC monolayer); type: cell-based, human; details: siJ-ECs treated with CA4P (20 nM) compared to siC-ECs treated with PBS
Protocol: (§1) HUVECs were purchased from Lonza, cultured in endothelial growth medium (EGM-2, Lonza) and incubated in a humidified atmosphere with 5% CO2 at 37° C. The cells used were between passages 3 to 8. Transfections of siRNA duplexes into HUVECs were performed using Lipofectamine® RNAiMAX (Invitrogen) at a final concentration of 40 nM according to the manufacturer's protocol.
For in vitro vascular permeability assay, HUVECs were cultured on collagen-coated 1.0 μm-size pore insert (Millipore). After starvation for 12 hr, the cells were treated with or without VEGF (50 ng/ml) or CA4P (20 nM) for 2 hr and was then incubated with 70 kDa FITC-Dextran for 20 min. Each solution in plate wells were read with a Victor X2 multilabel plate reader.

[2] = test system: RhoA-ROCK signaling pathway; assay: RhoA activity, ROCK activity and MLC phosphorylation in HUVECs; type: cell-based, human
Protocol: RhoA activities were determined using a RhoA activation assay kit (BK036, Cytoskeleton). […] Cells were lysed and the cell lysates were incubated with the rhotekin beads (50 μg/sample) for 1 h at 4° C., washed two times, and eluted with Laemmli sample buffer. Bound RhoA, which is an active form of RhoA, was analyzed by SDS-PAGE separation followed by immunoblotting with an anti-RhoA antibody (ARH03, Cyto skeleton). The amount of total RhoA was also analyzed by immunoblotting using the same antibody in order to normalize the relative activity of RhoA.
ROCK activities were determined using a ROCK activity assay kit (CSA001, Millipore). HUVECs were lysed and cell lysates were incubated for 1 hr at room temperature in 96-well plates pre-coated with recombinant MYPT1, which contain Thr696 residue that can be phosphorylated by active ROCK. The plates were washed and incubated with anti-phospho-MYPT1 (Thr696) antibody followed by incubation with HRP-conjugated secondary antibody and HRP substrate reagent. The relative amount of active ROCK was measured by a microplate reader at 450 nm (Bio-Rad).
At the indicated time, tumor tissues or cultured HUVECs were homogenized in ice-cold lysis buffer containing a protease inhibitor cocktail (Roche). […] Chemiluminescent signals were developed with HRP substrate (Millipore) and detected with a LAS-1000 mini (Fuji film).

HUVECs [3] = assay: In vitro Matrigel tube formation assay; type: cell-based, human; details: siJ-ECs (RhoJ knockdown) with CA4P 20 nM, 12 hr; compared to single treatment
Protocol: as §1
For matrigel tube formation assay, growth factor reduced Matrigel (BD bioscience) was thawed overnight at 4° C. The Matrigel was allowed to solidify on a 4-well culture dishes at 37° C. for 30 min. Cells were harvested and seeded at a density of 2×10^4 cells/well in growth media. Cells were then incubated at 37° C. for a further 12 hr. Tube formation was observed by taking pictures using a Leica DM IL microscope. The matrigel assays were quantified by counting the number of nodes and tubules from five different fields for each condition.

LLC tumor vessels = assay: LLC tumor model, CD31+ tumor vessel density; type: in vivo, mouse; details: for reduction of vascular density, intratumoral region / reduction of vascular density, peritumoral region: CA4P 50 mg/kg, 6 days after first treatment
Protocol: (§2) LLC and B16F10 melanoma cells were obtained from American Type Culture Collection. To generate implantation tumor models, suspensions of tumor cells (1×10^6 cells in 100 μl) were SC injected into the dorsal flank of 8 to 10 weeks old mice. Tumor volumes were measured at given time points. Tumor volume was calculated according to the formula, 0.5×A×B^2, where A is the largest diameter of a tumor and B is its perpendicular diameter. Tumor growth rate is defined as increased tumor volume relative to 2 days before. Indicated days later, the mice were anesthetized and tissues were harvested for further analyses. Tamoxifen (4 mg/kg, 4 times every 2 days, Sigma-Aldrich) was IP injected into Cdh5(PAC)-Cre^ERT2;Rhor^fl/fl mice starting from the day before tumor implantation or after the tumor volume had exceeded 300 mm^3. Cisplatin (10 mg/kg, every 7 days, Sigma-Aldrich) is IP injected for cytotoxic chemotherapy when tumor volume exceeded 100 mm^3. VEGF-trap (25 mg/kg, indicated schedule) is SC injected as an AIA therapy. CA4P (50 mg/kg, every 2 days, Sigma-Aldrich) was IP injected as a VDA therapy. As a control, equal amounts of Fc or PBS was injected in the same manner. To knock down RhoJ in vivo, control or RhoJ siRNA (2 mg/kg, indicated schedule), which were encapsulated into aptEDB-LS complexes, were IV injected into tumor-bearing mice.
For hematoxylin and eosin (H&E) staining, tumors and indicated organs were fixed overnight in 4% paraformaldehyde (PFA). After tissue processing using standard procedures, samples were embedded in paraffin and cut into 3-1 μm sections followed by H&E staining. For immunofluorescence studies, samples were fixed in 1% PFA, dehydrated in 20% sucrose solution overnight, and embedded in tissue freezing medium (Leica). Frozen blocks were cut into 50-1 μm sections. Samples were blocked with 5% goat (or donkey) serum in PBST (0.03% Trition X-100 in PBS) and then incubated for 3 hr at room temperature (RT) with the following primary antibodies: anti-GFP (rabbit polyclonal, Millipore), anti-CD31 (hamster, clone 2H8, Millipore), anti-RhoJ (mouse, clone 1E4, Novus), anti-RhoJ (mouse, clone 1D7, OriGene), FITC-conjugated anti-c′-SMA (mouse, clone 1A4, Sigma-Aldrich), anti-VE-cadherin (rat, clone 11D4.1, BD Phamingen), anti-VE-cadherin (rabbit, clone D87F2, Cell Signaling), anti-PDGFRβ (rat, eBioscience), anti-Ter119 (rat, clone TER-119, eBioscience), anti-caspase-3 (rabbit polyclonal, R&D systems), anti-LYVE-1 (rabbit polyclonal, Angiobio), anti-pan-cytokeratin (mouse, clone AE1/AE3, Abcam), anti-melanin-A (rabbit polyclonal, Abcam), anti-collagen type IV (rabbit polyclonal, Cosmo Bio), or anti-cisplatin modified DNA (rat monoclonal, Abcam). After several washes, the samples were incubated for 2 hr at RT with the following secondary antibodies: FITC-, Cy3-, or Cy5-conjugated anti-hamster IgG (Jackson ImmunoResearch), FITC- or Cy3-conjugated anti-rabbit IgG (Jackson ImmunoResearch), Cy3-conjugated anti-rat IgG (Jackson ImmunoResearch), or Cy3-conjugated anti-mouse IgG (Jackson ImmunoResearch). Goat Fab fragment anti-mouse IgG (Jackson ImmunoResearch) was used to block endogenous mouse IgG to use mouse antibody on mouse tissues. F-actin was stained with acti-stain 555 phalloidin (Cytoskeleton). Nuclei were stained with 4′,6-diamidino-2-phenylindole (DAPI, Invitrogen). Then the samples were mounted with fluorescent mounting medium (DAKO) and immunofluorescent images were acquired using a Zeiss LSM510 confocal microscope (Carl Zeiss). To detect the hypoxic areas in the tumors, Hypoxyprobe-1™ (60 mg/kg, solid pimonidazole hydrochloride, Natural Pharmacia International) was IV injected 90 min before perfusion-fixation. The tumors were then harvested, sectioned, and stained with FITC-conjugated anti-Hypoxyprobe antibody.
Density measurement of blood vessels, metastasis, hemorrhagic area, leakage area, and perfusion area were performed with ImageJ software (http://rsb.info.nih.gov/ij). […]

LLC tumor [4] = assay: LLC implantation tumor model, tumor growth; type: in vivo, mouse; details: for maintenance of tumor growth response to CA4P: CA4P 50 mg/kg; for decrease of LLC tumor growth: RhoJ-WT mice
Protocol: as §2

LLC tumor [5] = assay: LLC tumor model, cytokeratin+ metastasis to inguinal LNs; type: in vivo, mouse; details: CA4P 50 mg/kg
Protocol: as §2, with “tumor-bearing mice. […]” for “tumor-bearing mice.”

LLC tumor [6] = assay: Intratumoral cisplatin-modified DNA area in LLC tumor; type: in vivo, mouse; details: RhoJ-KO mice compared to RhoJ-WT mice
Protocol: as §2, with “tumor-bearing mice. […]” for “tumor-bearing mice.”

LLC tumor [7] = assay: LLC tumor model, intratumoral necrosis and hemorrhage (H&E); type: in vivo, mouse; details: RhoJ-KO mice treated with cisplatin compared to RhoJ-WT mice treated with cisplatin; 2 weeks after treatment
Protocol: To generate implantation tumor models, suspensions of tumor cells (1×10^6 cells in 100 μl) were SC injected into the dorsal flank of 8 to 10 weeks old mice. Tumor volumes were measured at given time points. Tumor volume was calculated according to the formula, 0.5×A×B^2, where A is the largest diameter of a tumor and B is its perpendicular diameter. Tumor growth rate is defined as increased tumor volume relative to 2 days before. Indicated days later, the mice were anesthetized and tissues were harvested for further analyses. […]
Density measurement of blood vessels, metastasis, hemorrhagic area, leakage area, and perfusion area were performed with ImageJ software (http://rsb.info.nih.gov/ij). For blood vessel density, CD31^+ area per random 0.42 mm^2 areas was measured in the peri- and intratumoral regions. To determine the amount of blood vessels that express RhoJ, GFP^+&CD31^+ area per CD31^+ area in five random 0.42 mm^2 areas were calculated. In addition, to find the percentage of CD31^+ endothelial cells within RhoJ-GFP expressing cells, the GFP^+&CD31^+ area per total GFP^+ area was also calculated. […] The area of cytokeratin^+ fluorescence was presented as % per total sectioned area of lymph node. […] The extent of hemorrhage was measured as a % of Ter-119^+ area per random 0.24 mm^2 areas. Vascular leakage was quantified as the dextran^+ area % per random 0.42 mm^2.

[8] = LLC implanted WT mice, en-siJ 2 mg/kg, VEGF-trap 25 mg/kg, 12 days after first treatment
[9] = RhoJ-KO mice, VEGF-trap 25 mg/kg, 9 days after first treatment
[10] = RhoJ-WT mice, VEGF-trap 25 mg/kg, 9 days after first treatment

Compound: COc1ccc(/C=C\c2cc(OC)c(OC)c(OC)c2)cc1OP(=O)(O)O [CA4P, combretastatin-A4-phosphate]
- increase in permeability across the EC monolayer (HUVECs [1]): 2.9 fold
- RhoA-ROCK signaling pathway (MLC phosphorylation) ([2]; RhoJ knockdown in combination with CA4P 20 nM, 30 min): further activated
- EC tube formation (HUVECs [3]): almost complete disruption
- reduction of vascular density, intratumoral region (LLC tumor vessels; RhoJ-KO mice): 60%
- reduction of vascular density, peritumoral region (LLC tumor vessels; RhoJ-KO mice): 59%
- reduction of vascular density, intratumoral region (LLC tumor vessels; RhoJ-WT mice): 31%
- reduction of vascular density, peritumoral region (LLC tumor vessels; RhoJ-WT mice): 13%
- additional inhibition in tumor growth (LLC tumor [4]; LLC, RhoJ-KO mice, CA4P 50 mg/kg IP every 2 days): 79%
- reduction in tumor growth (LLC tumor [4]; LLC, WT mice, CA4P 50 mg/kg IP every 2 days): 18%
- maintenance of tumor growth response to CA4P (LLC tumor [4]; RhoJ-KO mice): durable response
- maintenance of tumor growth response to CA4P (LLC tumor [4]; WT mice): not maintained
- reduction of metastasis (inguinal LNs) (LLC tumor [5]; RhoJ-KO mice): 67%
- reduction of metastasis (inguinal LNs) (LLC tumor [5]; RhoJ-WT mice): no reduction

Compound: N.N.[Cl][Pt][Cl] [Cisplatin, cisplatin]
- increase in intratumoral accumulation of cisplatin (LLC tumor [6]): ~2.0 fold
- increased intratumoral necrosis (LLC tumor [7]): 80%
- delay of LLC tumor growth (LLC tumor [4]; RhoJ-KO mice, cisplatin 10 mg/kg IP once every week from tumor volume >100 mm^3): 90%
- decrease of LLC tumor growth (LLC tumor [4]; cisplatin 10 mg/kg IP once every week from tumor volume >100 mm^3): 64%

Compound: C[C@@H](N)[C@H]1CC[C@H](C(=O)Nc2ccncc2)CC1 [Y-27632]
- RhoA activity, ROCK activity and MLC phosphorylation increased in siJ-ECs, after ROCK inhibitor ([2]; siJ-ECs treated with Y-27632 (up to 20 μM) for 1 hr): almost completely diminished

Compound: VEGF-trap: VEGF decoy receptor; recombinant protein from stable CHO cell lines, sequesters VEGF
- decrease of tumor vessel density, intratumoral region (LLC tumor vessels; [8]): ~50%
- decrease of tumor vessel density, peritumoral region (LLC tumor vessels; [8]): ~45%
- reduction of tumor vascular density, intratumoral area (LLC tumor vessels; [9]): 68%
- reduction of tumor vascular density, peritumoral area (LLC tumor vessels; [9]): 66%
- decrease of tumor vascular density, intratumoral area (LLC tumor vessels; [10]): 49%
- decrease of tumor vascular density, peritumoral area (LLC tumor vessels; [10]): 43%
- delay of LLC tumor growth (LLC tumor [4]; RhoJ-KO mice, VEGF-trap 25 mg/kg SC, vs Fc): 88%
- decrease of LLC tumor growth (LLC tumor [4]; VEGF-trap 25 mg/kg SC, vs Fc): 47%
